We go through two compounds from patent publication US5691328A, “Phosphoethanolamine conjugates of vitamin D compounds” (Clarion Pharmaceuticals Inc., priority 1996, dated 1997).

The structures appear in SMILES notation. Read-outs that look alike come from different tables or passages of the source.

The test system of experiment [1] is PMA-Induced Inflammation in Ears of CD-1 Mice. Description: PMA-induced inflammation in mouse ears. The experiment is classed as in vivo, mouse (CD-1). The following applies: 6 hours. How it is done: A common in vivo model for the evaluation of anti-inflammatory agents is PMA-induced inflammation in mouse ears. This method is described in "Pharmacological Methods in the Control of Inflammation", Joseph Y. Chang and Alan J. Lewis (eds), Alan R. Liss, Inc., N.Y., pp 221-223. In this assay, edema, which is a characteristic of inflammation, is quantified by determining ear thickness or ear weight approximately 6 hours after applying PMA to the ear.
1. Mice: Male CD-1, 21-24 g (Product Number 3002) obtainable from Harlan Sprague Dawley, Indianapolis, Ind., USA;
a. Prepare 0.01% (w/v) PMA in a mixture of equal volumes of acetone and ethanol;
b. Prepare 0.01% (w/v) PMA and 5% (w/v) test compound in a mixture of equal volumes of acetone and ethanol;
c. Divide 9 mice into 3 groups of 3 mice each;
d. Leave one group of mice untreated;
e. Treat the second group of mice by applying 20 μL of PMA solution to both ears using a micropipetter;
f. Treat the third group of mice by applying 20 μL of PMA solution to the right ear and 20 μL of PMA/test compound solution to the left ear;
g. Wait 6 hours and euthanize the mice in a CO2 chamber;
h. Cut the ears and punch out circles of 6-mm diameter; and
I. Measure the weight of three appropriate ear punches in the same group together.

The subject of experiment [2] is RAW 264.7 murine monocyte/macrophage line. Description: Assay for Anti-inflammatory Activity by Inhibition of Macrophage Chemiluminescence (respiratory burst, PMA-stimulated mouse macrophages). Type of experiment: cell-based. The source says: The RAW 264.7 cell line (available from the ATCC under accession no. TIB 71) is a murine monocyte/macrophage line the cells of which show many of the differentiative functions of a macrophage. Like macrophages, the cells are capable of phagocytosis and undergo an oxidative burst (increased oxygen consumption) and production of oxygen radicals (e.g., superoxide) in response to appropriate signals. Agents that inhibit the activation of these cells in vitro, so as to inhibit the respiratory burst and corresponding production of oxygen radicals associated with the activation, are therefore inhibitors of macrophage activation and critical steps in inflammatory processes.
The respiratory burst and corresponding production of oxygen radicals that accompany macrophage activation can be measured in a variety of ways, including chemiluminescence based on the reaction of the oxygen radicals with luminol added to the culture medium (see M. A. Trush et at., 1978, "The Generation of Chemiluminescence by Phagocytic Cells." Methods in Enzymology 57: 462-494). Indeed, chemiluminescence generated from luminol in the culture medium of macrophage cell lines is recognized in the art as a marker of macrophage activation.
1. Cell line: Raw 264.7 (ATCC TIB-71, attachment dependent);
2. Culture medium: DMEM with 10% FBS;
(§1) 3. Standard protocol for culturing cell lines: in T-75 or T-150 flasks; 37° C.; 95% air, 5% CO2; 100% humidity;
a. Cell line is passaged when approximately 80% confluent; with trypsin (1 mg/ml) and EDTA ([…] in ca-MG free Hank's balanced salt solution); at a 1:4 to 1:5 split;
b. All procedures are performed aseptically in a class II biological safety cabinet using standard BL-2 containment procedures. In order to prevent genetic drift in stock cell lines, fresh cultures are prepared at approximately monthly intervals with cells thawed from liquid nitrogen storage.
a. After cell passage, count cells with a hemacytometer;
b. Adjust cell concentration to approximately 1,000,000 cells per mL;
c. Suspend cells in DMEM lacking phenol red and without FBS;
d. Pipette 1 mL of cell suspension into a standard luminometer cuvet (12×75), commercially obtainable from Analytical Luminescence Laboratories, San Diego, Calif., USA;
e. Add luminol to final concentration of 0.2 μM;
f. Add test compound dissolved in phosphate buffered saline (PBS), or in DMSO for the comparative compound, vitamin D3, for final concentration levels ranging from 0 to 30 μM;
g. Add 100 nanograms of phorbol myristate acetate (PMA); and
h. Wait 1 minute and read photo counts (i.e., luminescence) on a Monolight 2010 luminometer available from Analytical Luminescence Laboratories, San Diego.
Background--no test compound present; no PMA present;
Control--no test compound present;
Calculate: [formula] where L is luminescence. 6.

Experiment [3] has as its system PAM-212 Mouse Keratinocytes. Description: in vitro PAM-212 Mouse Keratinocytes inhibition assay (anti-psoriasis). Type of experiment: cell-based. The following applies: at concentrations above 30 μM, 48 hours, FIG. 3. An excerpt: FIG. 3 is a graphical representation of results from an in vitro PAM-212 Mouse Keratinocytes inhibition assay of a compound of the invention, designated CPR 2005, in comparison with vitamin D3.
Psoriasis is a chronic inflammatory dermatosis characterized, in part, by hyper-proliferation of keratinocytes and release of pro-inflammatory cytokines. Compounds that reduce hyperproliferation of keratinocytes in vitro are likely to have utility in the control of psoriasis.
1. Cell line: PAM-212 murine keratinocyte cell line isolated and cultivated from newborn BALB/c mice (see S. H. Yuspa et al., Cancer Research, Vol. 40, pp. 4694-4703, December, 1980) that appears to retain many characteristics of normal keratinocytes.
2. Culture medium: 1:1 DMEM and Ham's F-12 with 10% FBS.
3. Culture conditions are the same as those described in part 3 of the assay protocol for anti-tumor activity.
4. Methodology is the same as that described in part 4 of the assay protocol for anti-tumor activity, except that, with reference to part 4(b) of the assay protocol for anti-tumor activity, cell concentration in this case is adjusted to 1,000 cells per 100 μL (rather than 5,000 cells per 100 μL).
5. End point determination and analysis are as described in part 5 of the assay protocol for anti-tumor activity.

The subject of experiment [4] is HT-29 Human Colon Cancer Cells. Nature of the experiment: in vitro HT-29 Human Colon Cancer Cells inhibition assay (sulforhodamine B). Type of experiment: cell-based. The following applies: at concentrations above 30 μM; 48 hours; FIG. 2.
Source text: FIG. 2 is a graphical representation of results from an in vitro HT-29 Human Colon Cancer Cells inhibition assay of a compound of the invention, designated CPR 2005, in comparison with Vitamin D3.
(§2) 1. Human tumor cell lines, obtainable from the American Type Culture Collection (ATCC):
b. HT-29 (ATCC HTB-38): a human colon caminoma cell line (attachment dependent).
b. For cell line 1-b: 1:1 DMEM and Ham's F-12 (DMEM/F12) plus 10% FBS.
as §1
a. […]
(§3) h. Read absorbance at 562 nm using a standard 96-well microtiler plate reader. Absorbance readings are linear with dye concentrations below 1.8 absorbance units. To reduce absorbance, decrease wavelength at which measurements are taken;
(§4) single point reading: the higher the absorbance, the higher the […]; […]
(§5) initial control cell number (ICCN)--no test compound present in culture medium, end point was determined at the time of treatment;
(§6) final control cell number (FCCN)--no test compound present in culture medium, end point was determined at […] after treatment;
(§7) final cell number (FCN)--test compound present in culture medium, end point was determined at 48 hours after treatment; […]
(§8) FCN=A(test compound, 48 hours)-A(Background) [formula] where A is absorbance. […]

For experiment [5], the system named is MDA-MB-231 Human Breast Cancer Cell. Description: in vitro MDA-MB-231 Human Breast Cancer Cell inhibition assay (sulforhodamine B). The experiment is classed as cell-based. The following applies: at 100 μM; 48 hours; FIG. 1.
Source text: FIG. 1 is a graphical representation of results from an in vitro MDA-MB-231 Human Breast Cancer Cell inhibition assay of a compound of the invention, designated CPR 2005, in comparison with vitamin D3.
as §2
a. MDA-MB-231 (ATCC HTB-26): an estrogen receptor negative human breast carcinoma cell line (attachment dependent); and
a. For cell line 1-a: Dulbecco's Modified Eagle's Medium (DMEM) plus 10% Fetal Bovine Serum (FBS); and
as §1
a. […]
as §3, §4, §5, §6, §7, §8

Where [6] appears, read: Mus musculus, RAW264.7, read-out: % Inhibition of Respiratory Burst.

On to `C=C1CC[C@H](OP(=O)([O-])OCC[N+](C)(C)C)C/C1=C/C=C1\CCC[C@]2(C)[C@@H]([C@H](C)CCCC(C)C)CC[C@@H]12` [CPR 2005, (5Z,7E)-(3S)-9,10-Secocholesta-5,7,10(19)-trien-3-phosphocholine], for which the “Average Weight of Punched Ear, left ear” value in experiment [1] (CPR 2005 + PMA (left ear), PMA (right ear, 30 mg), PMA both ears: left 34, right 28, untreated 12, 20 μL of 0.01% PMA / 5% (w/v) test compound) worked out at 15 mg. Also, the “inhibition of PMA-induced inflammation in mouse ear” value in experiment [1] (topical, 5% (w/v) test compound) is given as “marked inhibition”. Besides, the inhibition at 1 µM in experiment [2] (RAW264.7, Concentration 1 μM, PMA-Stimulated Mouse Macrophages, read-out: % Inhibition of Respiratory Burst) stood at 45%. For the same compound, the inhibition at 3 µM in experiment [2] (RAW264.7, Concentration 3 μM, PMA-Stimulated Mouse Macrophages, read-out: % Inhibition of Respiratory Burst) was 90%. The inhibition at 10 µM in experiment [2] (RAW264.7, Concentration 10 μM, PMA-Stimulated Mouse Macrophages, read-out: % Inhibition of Respiratory Burst) amounted to 98%. Moreover, the inhibition at 30 µM in experiment [2] (RAW264.7, Concentration 30 μM, PMA-Stimulated Mouse Macrophages, read-out: % Inhibition of Respiratory Burst) is 99%. Further, the inhibition of luminescence entry in experiment [2] (at concentrations above 1 μM, PMA-stimulated) is on record as “marked inhibition”. Besides, in experiment [3], the “inhibition of keratinocyte proliferation” value is on record as “marked inhibition”. In addition, the “inhibition of HT-29 cell growth” value in experiment [4] is on record as “marked inhibition”. Further, the “inhibition of MDA-MB-231 cell growth” value in experiment [5] is reported as “marked inhibition”.

For the compound `C=C1CC[C@H](O)C/C1=C/C=C1\CCC[C@]2(C)[C@@H]([C@H](C)CCCC(C)C)CC[C@@H]12` [Vitamin D3, 9, 10-secocholesta-5,7,10(19)-trien-3-ol, reference compound], in experiment [2] (setting [6]), the inhibition at 1 µM is 10%, the inhibition at 3 µM is 9%, the inhibition at 10 µM turned out to be 2% and the inhibition at 30 µM is 12%.

For orientation: inhibition means the change of the read-out against control, counted positive when it falls.
